Reference: publication PMC6163054 (Chembiochem : a European journal of chemical biology, 2018)

Target: Fluc (firefly luciferase) (Photinus pyralis, UniProt P08659)
Test: bioluminescence kinetics, luminometer, nonlinear regression
Assay type: biochemical
Conditions: ATP, Mg2+, pH 7.6; text says low millimolar range

Chain of Fluc (firefly luciferase) (P08659 whole entry): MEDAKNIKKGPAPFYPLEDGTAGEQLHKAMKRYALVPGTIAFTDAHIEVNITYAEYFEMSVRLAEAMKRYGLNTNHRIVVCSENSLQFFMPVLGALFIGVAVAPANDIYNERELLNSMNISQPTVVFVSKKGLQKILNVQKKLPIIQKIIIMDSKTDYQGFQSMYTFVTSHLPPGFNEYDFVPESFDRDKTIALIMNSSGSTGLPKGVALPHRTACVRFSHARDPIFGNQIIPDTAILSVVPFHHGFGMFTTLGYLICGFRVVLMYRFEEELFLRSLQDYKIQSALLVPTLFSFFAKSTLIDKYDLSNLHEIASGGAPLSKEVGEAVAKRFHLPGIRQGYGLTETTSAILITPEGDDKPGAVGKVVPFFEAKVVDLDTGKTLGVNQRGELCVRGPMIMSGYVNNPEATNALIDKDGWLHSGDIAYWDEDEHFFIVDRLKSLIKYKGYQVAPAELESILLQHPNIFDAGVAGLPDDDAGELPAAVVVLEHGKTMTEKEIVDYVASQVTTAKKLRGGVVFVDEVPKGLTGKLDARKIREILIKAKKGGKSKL

Structure (SMILES)	apparent Km
O=C(O)[C@H]1CSC(c2nc3c[nH]c(=O)cc3s2)=N1 [compound 3, (S)-2-(Thiazolo[4,5-c]pyridin-6(5H)-one-2-yl)-4,5-dihydrothiazole-4-carboxylic acid]	The apparent Km values measured for both luciferins were in the low millimolar range
O=C(O)[C@H]1CSC(c2nc3ccc(=O)[nH]c3s2)=N1 [compound 4, (S)-2-(Thiazolo[5,4-b]pyridin-5(4H)-one-2-yl)-4,5-dihydrothiazole-4-carboxylic acid]	The apparent Km values measured for both luciferins were in the low millimolar range
